melting point [°C]	SMILES
219 to 220	CC1(C)CC(=C(c2ccc(O)cc2)c2ccc(/C=C/C(=O)O)cc2)CC(C)(C)C1 [Example 6, (2E)-3-{4-[(4-Hydroxyphenyl)(3,3,5,5-tetramethylcyclohexylidene)methyl]phenyl}-2-propenoic acid]
118 to 121	CC(=O)Nc1ccc(C(=C2CC(C)(C)CC(C)(C)C2)c2ccc(O)cc2)cc1 [Example 21, N-{4-[(4-hydroxyphenyl)(3,3,5,5-tetramethylcyclohexylidene)methyl]phenyl}acetamide]
122 to 124	CC1(C)CC(=C(c2ccc(O)cc2)c2ccc(OCCOCCO)cc2)CC(C)(C)C1 [Example 23, 4-[[4-({2-[(2-Hydroxyethyl)oxy]ethyl}oxy)phenyl](3,3,5,5-tetramethylcyclohexylidene)methyl]phenol]
149 to 150	CC1(C)CC(=C(c2ccc(O)cc2)c2ccc(S(C)(=O)=O)cc2)CC(C)(C)C1 [Example 30, 4-[[4-(Methylsulfonyl)phenyl](3,3,5,5 tetramethylcyclohexylidene)methyl]phenol]
209 to 210	CC1(C)CC(=C(c2ccc(O)cc2)c2ccc(C(N)=O)cc2)CC(C)(C)C1 [Example 31, 4-[(4-hydroxyphenyl)(3,3,5,5-tetramethylcyclohexylidene)methyl]benzamide]
154 to 155	CC1(C)CC(=C(c2ccc(O)cc2)c2ccc(OCCO)cc2)CC(C)(C)C1 [Example 32, 4-[{4-[(2-Hydroxyethyl)oxy]phenyl}(3,3,5,5-tetramethylcyclohexylidene)methyl]phenol]
155 to 156	O=C(O)/C=C/c1ccc(C(=C2CCCCCC2)c2ccc(O)c(Cl)c2)cc1 [Example 42, (2E)-3-{4-[(3-Chloro-4-hydroxyphenyl)(cycloheptylidene)methyl]phenyl}-2-propenoic acid]
111 to 114	CC1(C)CC(=C(c2ccc(/C=C/C(=O)O)cc2)c2ccc(O)c(Cl)c2)CC(C)(C)C1 [Example 43, (2E)-3-{4-[(3-Chloro-4-hydroxyphenyl)(3,3,5,5-tetramethylcyclohexylidene)methyl]phenyl}-2-propenoic acid]
118 to 121	CC1(C)CC(=C(c2ccc(/C=C/C(=O)O)cc2)c2ccc(O)c(Cl)c2)CC(C)(C)O1 [Example 44, (2E)-3-{4-[(3-Chloro-4-hydroxyphenyl)(2,2,6,6-tetramethyltetrahydro-4H-pyran-4-ylidene)methyl]phenyl}-2-propenoic acid]
164 to 165	O=C(O)/C=C/c1ccc(C(=C2CCCCCC2)c2ccc(O)c(F)c2)cc1 [Example 45, (2E)-3-{4-[(3-fluoro-4-hydroxyphenyl)(cycloheptylidene)methyl]phenyl}-2-propenoic acid]
125 to 128	CC1(C)CC(=C(c2ccc(/C=C/C(=O)O)cc2)c2ccc(O)c(F)c2)CC(C)(C)O1 [Example 46, (2E)-3-{4-[(3-fluoro-4-hydroxyphenyl)(2,2,6,6-tetramethyltetrahydro-4H-pyran-4-ylidene)methyl]phenyl}-2-propenoic acid]
193 to 195	CC1(C)CC(=C(c2ccc(/C=C/C(=O)O)cc2)c2ccc(O)c(F)c2)CC(C)(C)C1 [Example 47, (2E)-3-{4-[(3-fluoro-4-hydroxyphenyl)(3,3,5,5-tetramethylcyclohexylidene)methyl]phenyl}-2-propenoic acid]
141 to 142	CC1(C)CC(=C(c2ccc(O)cc2)c2ccc(C#CCO)cc2)CC(C)(C)C1 [Example 48, 4-[[4-(3-hydroxy-1-propyn-1-yl)phenyl](3,3,5,5-tetramethylcyclohexylidene)methyl]phenol]
138 to 139	C#Cc1ccc(C(=C2CC(C)(C)CC(C)(C)C2)c2ccc(O)cc2)cc1 [Example 49, 4-[(4-Ethynylphenyl)(3,3,5,5-tetramethylcyclohexylidene)methyl]phenol]
220 to 221	CC1(C)CC(=C(c2ccc(O)cc2)c2ccc(CC(=O)O)cc2)CC(C)(C)C1 [Example 51, {4-[(4-Hydroxyphenyl)(3,3,5,5-tetramethylcyclohexylidene)methyl]phenyl}acetic acid]
243 to 244	CC1(C)CC(=C(c2ccc(O)cc2)c2ccc(CCC(=O)O)cc2)CC(C)(C)C1 [Example 61, 3-{4-[(4-Hydroxyphenyl)(3,3,5,5-tetramethylcyclohexylidene)methyl]phenyl}propanoic acid]
170 to 171	O=C(O)COc1ccc(C(=C2CCCCCC2)c2ccc(O)cc2)cc1 [Example 68, ({4-[Cycloheptylidene(4-hydroxyphenyl)methyl]phenyl}oxy)acetic acid]

melting point [°C]	SMILES
110 to 111	N#Cc1ccc(C(=C2CCCCCC2)c2ccc(O)cc2)cc1 [Example 77, 4-[cycloheptylidene(4-hydroxyphenyl)methyl]benzonitrile]
163 to 164	CC1(C)CC(=C(c2ccc(O)cc2)c2ccc(OCC(=O)O)cc2)CC(C)(C)C1 [Example 83, ({4-[(4-Hydroxyphenyl)(3,3,5,5-tetramethylcyclohexylidene)methyl]phenyl}oxy)acetic acid]
203 to 204	CC1(C)CC(=C(c2ccc(O)cc2)c2ccc(OCCCC(=O)O)cc2)CC(C)(C)C1 [Example 84, 4-({4-[(4-hydroxyphenyl)(3,3,5,5-tetramethylcyclohexylidene)methyl]phenyl}oxy)butanoic acid]
134 to 135	CC1(C)CC(=C(c2ccc(O)cc2)c2ccc(CO)cc2)CC(C)(C)C1 [Example 91, 4-[[4-(Hydroxymethyl)phenyl](3,3,5,5-tetramethylcyclohexylidene)methyl]phenol]
159 to 160	CC1(C)CC(=C(c2ccc(O)cc2)c2ccc(CCO)cc2)CC(C)(C)C1 [Example 92, 4-[[4-(2-Hydroxyethyl)phenyl](3,3,5,5-tetramethylcyclohexylidene)methyl]phenol]
160 to 161	CC1(C)CC(=C(c2ccc(O)cc2)c2ccc(CCCO)cc2)CC(C)(C)C1 [Example 93, 4-[[4-(3-Hydroxypropyl)phenyl](3,3,5,5-tetramethylcyclohexylidene)methyl]phenol]
128 to 129	CC1(C)CC(=C(c2ccc(O)cc2)c2ccc(-c3ccoc3)cc2)CC(C)(C)C1 [Example 94, 4-[[4-(3-furanyl)phenyl](3,3,5,5-tetramethylcyclohexylidene)methyl]phenol]
125 to 126	OCCCC#Cc1ccc(C(=C2CCCCCC2)c2ccc(O)cc2)cc1 [Example 100, 4-{Cycloheptylidene[4-(5-hydroxy-1-pentyn-1-yl)phenyl]methyl}phenol]
186 to 187	CC(C)(O)C#Cc1ccc(C(=C2CC(C)(C)CC(C)(C)C2)c2ccc(O)cc2)cc1 [Example 101, 4-[[4-(3-hydroxy-3-methyl-1-butyn-1-yl)phenyl](3,3,5,5-tetramethylcyclohexylidene)methyl]phenol]
183 to 184	CC1(C)CC(=C(c2ccc(O)cc2)c2ccc(C#CCCO)cc2)CC(C)(C)C1 [Example 102, 4-[[4-(4-hydroxy-1-butyn-1-yl)phenyl](3,3,5,5-tetramethylcyclohexylidene)methyl]phenol]
233 to 234	CC1(C)CC(=C(c2ccc(O)cc2)c2ccc(C#CCCC(=O)O)cc2)CC(C)(C)C1 [Example 103, 5-{4-[(4-Hydroxyphenyl)(3,3,5,5-tetramethylcyclohexylidene)methyl]phenyl}-4-pentynoic acid]
195 to 196	CC(=O)c1ccc(C(=C2CC(C)(C)CC(C)(C)C2)c2ccc(O)cc2)cc1 [Example 104, 1-{4-[(4-Hydroxyphenyl)(3,3,5,5-tetramethylcyclohexylidene)methyl]phenyl}ethanone]
222 to 223	CC1(C)CC(=C(c2ccc(O)cc2)c2ccc(-c3ccc(CO)cc3)cc2)CC(C)(C)C1 [Example 105, 4-[[4′-(Hydroxymethyl)-4-biphenylyl](3,3,5,5-tetramethylcyclohexylidene)methyl]phenol]
197 to 198	CC1(C)CC(=C(c2ccc(O)cc2)c2ccc(-c3cccc(CO)c3)cc2)CC(C)(C)C1 [Example 106, 4-[[3′-(Hydroxymethyl)-4-biphenylyl](3,3,5,5-tetramethylcyclohexylidene)methyl]phenol]
230 to 231	CC1(C)CC(=C(c2ccc(O)cc2)c2ccc(-c3ccccc3C(=O)O)cc2)CC(C)(C)C1 [Example 107, 4′-[(4-Hydroxyphenyl)(3,3,5,5-tetramethylcyclohexylidene)methyl]-2-biphenylcarboxylic acid]
171 to 172	CC1(C)CC(=C(c2ccc(O)cc2)c2ccc(-c3ccccc3CO)cc2)CC(C)(C)C1 [Example 108, 4-[[2′-(Hydroxymethyl)-4-biphenylyl](3,3,5,5-tetramethylcyclohexylidene)methyl]phenol]
